Consider 13 compounds from patent US12410171B2, “Tropomyosin receptor kinase (TRK) degradation compounds and methods of use” (Cullgen (Shanghai), Inc., priority 2020, dated 2025).

Read-outs that look alike come from different tables or passages of the source.

The experiment relates to KM12 cells. Description: KM12 cell viability (CellTiter-Glo). Format: cell-based. As to conditions: Homo sapiens, 72 h, KM12 cell viability, CellTiter-Glo, read-out: IC50. The protocol:
KM12 or H358 cells were treated with 1000 nM CPD-053 following an 8-point 3-fold serial dilution for 3 days.
KM12 cells seeded in 96-well plates were treated with heterobifunctional compounds following a 11-point 3-fold serial dilution for 3 days.
KM12, H358, HEL, SU-DHL-1 and other cells were cultured at 37° C. with 5% CO2 in RPMI 1640 Medium supplemented with 10% fetal bovine serum. Cells were authenticated using the short tandem repeat (STR) assays. Mycoplasma test results were negative. Stable cell lines were established by lentivirus transduction, selected and maintained in medium containing 1 μg/mL puromycin (Beyotime Biotechnology).
Cells were seeded at a density of 5000 cells per well in 96-well assay plates and treated with test compounds following a 12-point 2-fold serial dilution or a 8-point 3-fold dilution, or 11-point 3-fold serial dilution. Three days later, cell viability was determined using the CellTiter-Glo assay kit (Promega) according to the manufacturer's instructions. The dose-response curves were determined and IC50 values were calculated using the GraphPad Prism software following a nonlinear regression (least squares fit) method.

Setting [1] is: 11-point 3-fold serial dilution, 3 days.

In general, IC50 refers to the midpoint of a concentration-inhibition curve. Consider `COc1ccc(COc2ccc(Cn3c(N)nc4cc(-c5cnn(CC(=O)NCC(=O)N[C@H](C(=O)N6C[C@H](O)C[C@H]6C(=O)NCc6ccc(-c7scnc7C)cc6)C(C)(C)C)c5)cnc43)cc2OC)cc1` [CPD-507], for which the IC50 under setting [1] came out at 1520 nM. The same measure, in the same setting: then `COc1ccc(COc2ccc(Cn3c(N)nc4cc(-c5cnn(CC(=O)NCCCC(=O)N[C@H](C(=O)N6C[C@H](O)C[C@H]6C(=O)NCc6ccc(-c7scnc7C)cc6)C(C)(C)C)c5)cnc43)cc2OC)cc1` [CPD-508, (2S,4R)-1-((S)-2-(4-(2-(4-(2-amino-3-(3-methoxy-4-((4-methoxybenzyl)oxy)benzyl)-3H-imidazo[4,5-b]pyridin-6-yl)-1H-pyrazol-1-yl)acetamido)butanamido)-3,3-dimethylbutanoyl)-4-hydroxy-N-(4-(4-methylthiazol-5-yl)benzyl)pyrrolidine-2-carboxamide], with 2100 nM; and `COc1ccc(COc2ccc(Cn3c(N)nc4cc(-c5cnn(CC(=O)NCCCCCC(=O)N[C@H](C(=O)N6C[C@H](O)C[C@H]6C(=O)NCc6ccc(-c7scnc7C)cc6)C(C)(C)C)c5)cnc43)cc2OC)cc1` [CPD-509, (2S,4R)-1-((S)-2-(6-(2-(4-(2-amino-3-(3-methoxy-4-((4-methoxybenzyl)oxy)benzyl)-3H-imidazo[4,5-b]pyridin-6-yl)-1H-pyrazol-1-yl)acetamido)hexanamido)-3,3-dimethylbutanoyl)-4-hydroxy-N-(4-(4-methylthiazol-5-yl)benzyl)pyrrolidine-2-carboxamide], with 53.1 nM; and `COc1ccc(COc2ccc(Cn3c(N)nc4cc(-c5cnn(CC(=O)NCCOCCC(=O)N[C@H](C(=O)N6C[C@H](O)C[C@H]6C(=O)NCc6ccc(-c7scnc7C)cc6)C(C)(C)C)c5)cnc43)cc2OC)cc1` [CPD-512, (2S,4R)-1-((S)-2-(3-(2-(2-(4-(2-amino-3-(3-methoxy-4-((4-methoxybenzyl)oxy)benzyl)-3H-imidazo[4,5-b]pyridin-6-yl)-1H-pyrazol-1-yl)acetamido)ethoxy)propanamido)-3,3-dimethylbutanoyl)-4-hydroxy-N-(4-(4-methylthiazol-5-yl)benzyl)pyrrolidine-2-carboxamide], with 307 nM. The same measure, in the same setting: then `COc1ccc(COc2ccc(Cn3c(N)nc4cc(-c5cnn(CC(=O)NCCOCCOCCC(=O)N[C@H](C(=O)N6C[C@H](O)C[C@H]6C(=O)NCc6ccc(-c7scnc7C)cc6)C(C)(C)C)c5)cnc43)cc2OC)cc1` [CPD-513, (2S,4R)-1-((S)-1-(4-(2-amino-3-(3-methoxy-4-((4-methoxybenzyl)oxy)benzyl)-3H-imidazo[4,5-b]pyridin-6-yl)-1H-pyrazol-1-yl)-14-(tert-butyl)-2,12-dioxo-6,9-dioxa-3,13-diazapentadecan-15-oyl)-4-hydroxy-N-(4-(4-methylthiazol-5-yl)benzyl)pyrrolidine-2-carboxamide], with 261 nM; and `COc1ccc(COc2ccc(Cn3c(N)nc4cc(-c5cnn(CC(=O)NCCOCCOCCOCCC(=O)N[C@H](C(=O)N6C[C@H](O)C[C@H]6C(=O)NCc6ccc(-c7scnc7C)cc6)C(C)(C)C)c5)cnc43)cc2OC)cc1` [CPD-514, (2S,4R)-1-((S)-1-(4-(2-amino-3-(3-methoxy-4-((4-methoxybenzyl)oxy)benzyl)-3H-imidazo[4,5-b]pyridin-6-yl)-1H-pyrazol-1-yl)-17-(tert-butyl)-2,15-dioxo-6,9,12-trioxa-3,16-diazaoctadecan-18-oyl)-4-hydroxy-N-(4-(4-methylthiazol-5-yl)benzyl)pyrrolidine-2-carboxamide], with 174 nM. For `COc1ccc(COc2ccc(Cn3c(N)nc4cc(-c5cnn(CC(=O)NCCOCCOCCOCCOCCC(=O)N[C@H](C(=O)N6C[C@H](O)C[C@H]6C(=O)NCc6ccc(-c7scnc7C)cc6)C(C)(C)C)c5)cnc43)cc2OC)cc1` [CPD-515, (2S,4R)-1-((S)-1-(4-(2-amino-3-(3-methoxy-4-((4-methoxybenzyl)oxy)benzyl)-3H-imidazo[4,5-b]pyridin-6-yl)-1H-pyrazol-1-yl)-20-(tert-butyl)-2,18-dioxo-6,9,12,15-tetraoxa-3,19-diazahenicosan-21-oyl)-4-hydroxy-N-(4-(4-methylthiazol-5-yl)benzyl)pyrrolidine-2-carboxamide], the IC50 under setting [1] is 343 nM. For the compound `COc1ccc(COc2ccc(Cn3c(N)nc4cc(-c5cnn(CC(=O)NCCOCCOCCOCCOCCOCCC(=O)N[C@H](C(=O)N6C[C@H](O)C[C@H]6C(=O)NCc6ccc(-c7scnc7C)cc6)C(C)(C)C)c5)cnc43)cc2OC)cc1` [CPD-516, (2S,4R)-1-((S)-1-(4-(2-amino-3-(3-methoxy-4-((4-methoxybenzyl)oxy)benzyl)-3H-imidazo[4,5-b]pyridin-6-yl)-1H-pyrazol-1-yl)-23-(tert-butyl)-2,21-dioxo-6,9,12,15,18-pentaoxa-3,22-diazatetracosan-24-oyl)-4-hydroxy-N-(4-(4-methylthiazol-5-yl)benzyl)pyrrolidine-2-carboxamide], the IC50 under setting [1] came to 473 nM. Consider `O=C1CCC(N2Cc3cc(OCCN4CCN(c5cccc(-c6cnc7ccc(N8CCC[C@@H]8c8cccc(F)c8)nn67)n5)CC4)ccc3C2=O)C(=O)N1` (stereo partly drawn) [TR-200, 3-(5-(2-(4-(6-(6-((R)-2-(3-fluorophenyl)pyrrolidin-1-yl)imidazo[1,2-b]pyridazin-3-yl)pyridin-2-yl)piperazin-1-yl)ethoxy)-1-oxoisoindolin-2-yl)piperidine-2,6-dione], for which the IC50 (three days treatment) was 101 nM. On the same count and under the same terms, under `O=C1CCC(N2Cc3ccc(OCCN4CCN(c5cccc(-c6cnc7ccc(N8CCC[C@@H]8c8cccc(F)c8)nn67)n5)CC4)cc3C2=O)C(=O)N1` (stereo partly drawn) [TR-201, 3-(6-(2-(4-(6-(6-((R)-2-(3-fluorophenyl)pyrrolidin-1-yl)imidazo[1,2-b]pyridazin-3-yl)pyridin-2-yl)piperazin-1-yl)ethoxy)-1-oxoisoindolin-2-yl)piperidine-2,6-dione] stands above 500 nM. The same measure, in the same setting: then `O=C1CCC(N2C(=O)c3ccc(N4CC(CN5CCC(n6ccc(-c7cnc8ccc(N9CCC[C@@H]9c9cccc(F)c9)nn78)c6)CC5)C4)cc3C2=O)C(=O)N1` (stereo partly drawn) [TR-222, 2-(2,6-Dioxopiperidin-3-yl)-5-(3-((4-(3-(6-((R)-2-(3-fluorophenyl)pyrrolidin-1-yl)imidazo[1,2-b]pyridazin-3-yl)-1H-pyrrol-1-yl)piperidin-1-yl)methyl)azetidin-1-yl)isoindoline-1,3-dione], with above 500 nM; and `O=C1CCC(N2C(=O)c3ccc(N4CC(CN5CCN(c6cccc(-c7cnc8ccc(N9CCC[C@@H]9c9cccc(F)c9)cn78)n6)CC5)C4)cc3C2=O)C(=O)N1` (stereo partly drawn) [TR-234, 2-(2,6-dioxopiperidin-3-yl)-5-(3-((4-(6-(6-((R)-2-(3-fluorophenyl)pyrrolidin-1-yl)imidazo[1,2-a]pyridin-3-yl)pyridin-2-yl)piperazin-1-yl)methyl)azetidin-1-yl)isoindoline-1,3-dione], with 284 nM. Same read-out and setting: then `O=C1CCC(n2c(=O)n(CCCN3CCN(c4cccc(-c5cnc6ccc(N7CCC[C@@H]7c7cccc(F)c7)cn56)n4)CC3)c3ccccc32)C(=O)N1` (stereo partly drawn) [TR-243, 3-(3-(3-(4-(6-(6-((R)-2-(3-Fluorophenyl)pyrrolidin-1-yl)imidazo[1,2-a]pyridin-3-yl)pyridin-2-yl)piperazin-1-yl)propyl)-2-oxo-2,3-dihydro-1H-benzo[d]imidazol-1-yl)piperidine-2,6-dione], with above 500 nM.
